Laboratory results published in patent US8273708B2, “Methods of treatment of ocular surface pathologies” (priority 2004, dated 2012).
Entries after “also recorded” stand apart in the source; their conditions may differ.

Experiments:
Format in all cases: in vivo, rat
[1] = test system: corneal epithelial tight junctions; experiment: Corneal tight junction permeability by surface biotinylation after benzalkonium chloride
Description: Images obtained by fluorescence of the external corneal surface in the rat after ex vivo avidin-fluorescein biotinylation of the whole eye by avidin-fluorescein following cryosection (6 μm) (external side of cornea facing up)
(§1) Animals: Four groups of male Wistar rats (Janvier, Le Genest St Isle, France), weighing 300-350 g were used: BAK+sodium carmellose, BAK+ML-7, PBS+sodium carmellose, PBS+ML-7; PBS and sodium carmellose being the solvents for benzalkonium (BAK) and ML-7, respectively.
(§2) ML-7 pretreatment: Animals received a local application of ML-7 (Sigma, France) 24 hours, 12 hours and 30 minutes before chemical induction of ocular inflammation. Thus, each eye was treated with 100 μg of ML-7 in 10 μl of eye drops (sodium carmellose 4 mg/0.4 ml) or with 10 μl of eye drops alone.
(§3) Inflammation induction: Thirty minutes after the third application of ML-7 or the eye drops alone, each eye was treated with 10 μl of 0.5% benzalkonium chloride (Sigma-Aldrich, Steinheim, Germany) in PBS or 10 μl of PBS alone. After 10 minutes, the eyes of all the rats were rinsed with 250 μl of sterile water.
(§4) Eye excision: Six hours after application of benzalkonium chloride or PBS, the animals were anesthetized with pentobarbital (80 mg/kg IP) (Ceva Santé Animale, Libourne, France), sacrificed by decapitation and the eyes were immediately excised to be frozen directly or after surface biotinylation (tight junction permeability test).
Measurement of tight junction permeability—Surface biotinylation: The permeability of tight junctions in the cornea was evaluated by biotinylation of surface proteins. The chosen biotinylation reagent is water-soluble and contains an aminocaproyl spacer group, which lowers steric hindrance during avidin coupling. Immediately after excision, the eyes were incubated for 30 minutes at room temperature with gentle stirring in a solution containing sodium biotinamidohexanecarboxylate and 3-sulfó-N-hydroxysuccinimide at 1 mg/mL, in PBS (Sigma-Aldrich, Steinheim, Germany). The eyes were then rinsed three times in PBS, embedded in protective tissue freezing medium (Tissue Tek® OCT compound, Sakura Finetek, Inc., CA, USA), frozen in liquid nitrogen and stored at −80° C. Six micrometer thick slices were prepared with a cryostat and fixed in cold acetone for 10 minutes. After drying, the slices were labelled for 30 minutes in the dark with avidin D-FITC (Vector Laboratories, Inc., Burlingame, Calif., USA) diluted 250-fold in PBS-Tween containing 1% BSA, then rinsed three times for 5 minutes in PBS-Tween, in the dark. The slides were then mounted in fluorescence medium (Cappel fluorostab embedding medium, MP Biomedicals, Inc., Aurora, Ohio, USA) and examined under a Nikon Eclipse 90 i fluorescence microscope equipped with a Nikon DXM1200F digital camera. The images were analyzed with Nikon Lucia image analysis software release 4.8. As no significant differences in corneal thickness were observed between the different experimental groups (102±10 μm, 110±9 μm, 115±13 μm and 124±8 μm for BAK+sodium carmellose, BAK+ML-7, PBS+sodium carmellose and PBS+ML-7 groups, respectively), the depth of fluorescence labelling reflects the permeability of external corneal epithelial tight junctions to the biotinylation reagent.

[2] = test system: male Wistar rats; experiment: Polynuclear eosinophil infiltration induced by benzalkonium chloride, Direct Red count in the venous plexus region of the sclera; details: for number of polynuclear eosinophils in the venous plexus region of the sclera after benzalkonium chloride: 10 μl of 0.5% benzalkonium chloride, after six hours
Description: Upper panel: histological images after Direct Red staining. Lower panel: eosinophil count in venous plexus of sclera, density per square mm (means±SD; n=8)
as §1, §2, §3, §4
Measurement of polynuclear eosinophil infiltration: Polynuclear eosinophil leukocytes were specifically stained with Direct Red and counted in the venous plexus region of the sclera. […] Eosinophils, stained bright pink against a light background, were counted in the venous plexus region of the sclera under a Nikon Eclipse 90 i microscope equipped with a Nikon DXM1200F digital camera. The area of the zone to be counted was determined with Nikon Lucia image analysis software release 4.8 and counts were expressed as the number of eosinophils per mm^2. […]

[3] = test system: male Wistar rats; experiment: Ocular inflammation (neutrophil infiltration) induced by corneal instillation of benzalkonium chloride: total MPO activity in the eye
Method: FIG. 3: Experimental protocol for example 2. Animals received two pretreatments with ML-7 [1 mg/kg given by the intraperitoneal (IP) route] on the day before instillation of 0.1% BAK (in the morning and evening) and one pretreatment two hours before instillation. They were sacrificed six hours after rinsing and the eyes were excised in order to assay MPO activity.
The benzalkonium salt (BAK) corneal irritation model has been widely used in both in vitro and in vivo studies. The protocol is based on an in vitro study (Xu et al., 2000) adapted to in vivo conditions in the rat after preliminary tests to adjust times and concentrations.
Animals: Male Wistar rats (200-250 g) housed in individual cages were used. Animals were given a standard diet (UAR, Villemoisson, Epinay sur Orge) and drinking water ad libitum.
Inflammation induction: Inflammation was induced by instillation in the eye of 10 μl of 0.1% BAK solution (1 mg/ml). The control eye was instilled with 10 μl of 1×PBS. Ten minutes after instillation, the eyes were rinsed with 1 ml of sterile water.
(§5) Assay of myeloperoxidase activity: The eyes were excised and homogenized in phosphate buffer with the aid of a polytron. They were then subjected to three freeze/thaw cycles (liquid nitrogen/37° C. water bath). After centrifugation at 10,000 rpm for 15 min at 4° C., the pellets were resuspended in HTAB buffer and sonicated for 10 sec. After a second centrifugation, MPO activity was assayed in the supernatant in a reaction buffer containing O-dianisidine hydrochloride and 0.0005% hydrogen peroxide. The change in absorbance at 460 nm was measured on a spectrophotometer.
Experimental protocol: Animals received two pretreatments with ML-7 (1 mg/kg IP) on the day before instillation of 0.1% BAK (morning and evening) and one pretreatment two hours before instillation. They were sacrificed six hours after rinsing and the eyes were excised in order to assay total myeloperoxidase (MPO) activity (FIG. 3).

[4] = test system: male Wistar rats; experiment: Ocular inflammation induced by corneal instillation of P48/80: total MPO activity in the whole eye; details: ML-7 1 mg/kg IP, two pretreatments the day before and one two hours before instillation
Method: FIG. 1: Experimental protocol for example 1.
The corneal irritation model which was used has been validated in the rat (Allansmith et al., Acta Ophtalmol, 1989; 192S: 145-153) and in the rabbit (Bucolo et al., J. Ocul. Pharmacol, 1993; 9: 321-332).
Animals: Three groups of eight male Wistar rats (200-250 g) housed in individual cages were used. Animals were given a standard diet (UAR, Villemoisson, Epinay sur Orge) and drinking water ad libitum.
The control eye was instilled with 10 μl of 1×PBS.
as §5, with “assayed from” for “assayed in”
They were sacrificed six hours after instillation and the eyes were excised in order to assay total myeloperoxidase (MPO) activity in the whole eye (FIG. 1).

| Compound | corneal thickness ([1]; BAK+ML-7 group) | corneal thickness ([1]; PBS+ML-7 group) | effect of ML-7 on the BAK-induced increase in diffusion and thickening of the fluorescent zone ([1]; local pretreatment, 100 μg ML-7 per eye, 24 hours, 12 hours and 30 minutes before BAK) | effect of ML-7 on benzalkonium chloride-induced polynuclear eosinophil infiltration ([2]; local application, 100 μg ML-7 in 10 μl eye drops, 24 hours, 12 hours and 30 minutes before BAK) | effect of ML-7 on the benzalkonium chloride-induced increase in MPO activity ([3]; ML-7 1 mg/kg IP, two pretreatments the day before and one two hours before instillation) | effect of ML-7 on the P48/80-induced increase in MPO activity [4] | effect of benzalkonium chloride on corneal epithelial tight junctions (fluorescent penetration) ([1]; 10 μl of 0.5% benzalkonium chloride, after six hours) | corneal thickness ([1]; BAK+sodium carmellose group) | number of polynuclear eosinophils in the venous plexus region of the sclera after benzalkonium chloride [2] | number of polynuclear eosinophils in the venous plexus region of the sclera after benzalkonium chloride ([2]; listed as BAK) | total MPO activity in the eye after benzalkonium chloride ([3]; 10 μl of 0.1% BAK, rinsed after 10 minutes, after six hours) | increase in total MPO activity after benzalkonium chloride ([3]; versus baseline 8.2±1.9 U/g.protein, after six hours) |
| --- | --- | --- | --- | --- | --- | --- | --- | --- | --- | --- | --- | --- |
| O=S(=O)(c1cccc2c(I)cccc12)N1CCCNCC1 [ML-7, 1-(5-iodonaphthalene-1-sulfonyl)-1H-hexahydro-1,4-diazepine] | 110±9 μm | 124±8 μm | suppressed | significantly inhibited | suppressed; also recorded: inhibited | prevented; also recorded: inhibited |  |  |  |  |  |  |
| benzalkonium chloride |  |  |  |  |  |  | opening of corneal epithelial tight junctions | 102±10 μm | highly significant increase | highly significant | 26.4±7.2 U/g.protein | 321% |
